In patent EP4810035A1, “TREATMENT OF MODERATE TO SEVERE PLAQUE PSORIASIS” (Ganzhou Hemay Pharmaceutical, Co., Ltd, priority 2023, dated 2025):

How the values were obtained:
[1] = system: patients with moderate to severe chronic plaque psoriasis; assay: Clinical study on patients (Example 3), 16-week core treatment period, 36-week extension, 4-week follow-up, placebo-controlled; format: in vivo, human
Method: This study selected patients with moderate to severe chronic plaque psoriasis as target subjects. Specific criteria were set for disease duration, severity and extent (psoriasis history ≥ 6 months, PASI score ≥ 12, sPGA score ≥ 3, and BSA ≥ 10). […] Primary efficacy endpoint: PASI-75 at week 16. […] Improvement in pruritus symptoms and changes in DLQI scores were also evaluated. The study consisted of a 16-week core treatment period, a 36-week extension treatment period and a 4-week follow-up period. Subjects in the experimental group received 60 mg BID of the compound in Example 2. During the extension treatment period, subjects in the placebo group also received 60 mg BID of the compound in Example 2.

[2] = system: healthy Chinese subjects; assay: Phase I clinical study, multiple oral doses (Example 6); format: in vivo, human; conditions: multiple oral doses of 15 mg BID, 30 mg BID, 60 mg BID, 75 mg BID; 36 healthy Chinese subjects
Method: A total of 36 healthy Chinese subjects participated in a phase I clinical study, in which multiple oral doses of 15 mg BID, 30 mg BID, 60 mg BID, 75 mg BID of the compound in Example 2, or a placebo were administered, respectively.

[3] = system: subjects with moderate to severe plaque psoriasis; assay: Phase III study of moderate to severe plaque psoriasis (Example 4), double-blind placebo-controlled core period and open-label extension; conditions: for HADS Anxiety Score, Mean / HADS Depression Score, Mean: Experimental group (N=211)
Method: Tablets of the compound shown in Example 2 with a strength of 15 mg per tablet.
Control Drug: Placebo tablets matching the investigational drug with a strength of 0 mg per tablet.
• 1) Aged ≥ 18 years at the time of signing the Informed Consent Form (ICF), of any gender. • 2) Clinically diagnosed with stable plaque psoriasis, with a psoriasis history of ≥ 6 months (prior to randomization). • 3) The following requirements are met at screening and baseline: • a. Psoriasis Area and Severity Index (PASI) score ≥ 12; and • b. Static Physician Global Assessment (sPGA) score ≥ 3 (based on an sPGA 0-4 scale); and • c.
The treatment period consisted of two phases: during the double-blind core treatment period, subjects received 60 mg BID of the investigational drug or placebo for 16 weeks (week 0 to week 16); during the open-label extension treatment period, all subjects received 60 mg BID of the investigational drug for 36 weeks (week 16 to week 52).
A total of 305 subjects were enrolled (211 in the experimental group and 94 in the placebo group; including 105 T-SPOT positive subjects without active tuberculosis, 7 subjects with previously confirmed pulmonary tuberculosis, 76 subjects with a history of tuberculosis, and 1 subject with a history of tuberculous pleurisy).
The primary efficacy endpoint was the proportion of subjects achieving PASI 75 at week 16 compared to baseline. The key secondary efficacy endpoint was an sPGA 0/1 with a reduction of ≥2 points from baseline at week 16. Other secondary efficacy endpoints included the proportion of subjects achieving PASI-90, PASI-75, PASI-50, and both PASI-75 and sPGA 0/1 with a ≥ 2-point reduction from baseline at each visit, as well as the rate of change in BSA. Clinical observation and evaluation were conducted over the 16-week core treatment period, the 36-week extension treatment period and the 4-week follow-up period. The Hospital Anxiety and Depression Scale (HADS) was used as an assessment tool to observe and evaluate the anxiety and depression status of subjects at screening, the end of the 16-week core period and 4 weeks after the last dose.

[4] = system: Patients with plaque psoriasis; assay: Multicenter, randomized, double-blind, placebo-parallel controlled dose study in plaque psoriasis (Example 5); format: in vivo, human; conditions: for PASI-75 response rate (%): week 16
Method: This was a multicenter, randomized, double-blind, placebo-parallel controlled study. A total of 216 subjects were enrolled and randomized in a 1:1:1:1 ratio into the low-dose group (15 mg BID), mid-dose group (30 mg BID), high-dose group (60 mg BID) of the investigational drug, and the placebo group for a 16-week core treatment period. Upon completion of the core treatment, subjects in the low, mid and high-dose groups maintained their original doses for a 36-week extension treatment period. Subjects in the placebo group were switched to the mid-dose group (30 mg BID) for the 36-week extension treatment after completing the core period. All subjects completed a total of 52 weeks of treatment. Subjects who completed 52 weeks of treatment or discontinued prematurely should enter a 4-week follow-up period. […]

[5] = 16-week core treatment period, 60 mg BID, N=211
[6] = by the end of the clinical study

In the case of CCOc1cc([C@@H](CS(C)(=O)=O)N2C(=O)c3csc(NC(C)=O)c3C2=O)ccc1OC [Example 2, (S)-N-[5-[1-(3-ethoxy-4-methoxyphenyl)-2-(methylsulfonyl)ethyl]-4,6-dioxo-5,6-dihydro-5H-thieno[3,4-c]pyrrol-1-yl]acetamide], the deaths ([1]; 60 mg BID) is reported as “No deaths occurred”, the “drug-related serious adverse events” value ([1]; 60 mg BID) is reported as “No drug-related serious adverse events occurred” and the “severity of adverse events leading to discontinuation” value (from here on “severity of adverse events leading”) ([1]; 60 mg BID) is reported as “all Grade 1 or Grade 2”. For the same molecule, the “severity of drug-related adverse events” value ([1]; 60 mg BID) was “primarily Grade 1 or Grade 2”, the “Secondary Efficacy Indicators, difference compared to the placebo group” value ([1]; 60 mg BID, P<0.0001) was “statistically significant differences” and the “DLQI (LS mean)” value [1, 5] was 5.38 points. For the same molecule, the PASI-90 [1, 5] was 32.5%, the tuberculosis reactivation ([1]; T-SPOT positive but non-active TB subjects, by the end of the clinical study) was “no tuberculosis reactivation occurred” and the “occurrences of depression or suicidal ideation” value (“occurrences” for short) ([1]; by the end of the clinical study, any subjects) was “no occurrences of depression or suicidal ideation were observed”. For the same molecule, the “proportion of subjects achieving PASI-75” value ([1]; week 16, 60 mg BID, N=211) was 53.6%, the “rate difference between the two groups (PASI-75)” value ([1]; week 16, Example 2 group vs placebo group) was 37.6% and the Chest imaging examinations ([1]; week 16 visit, T-SPOT positive but non-active TB subjects) was “no abnormalities”. The safety and tolerability [2] was “good safety and tolerability”, the death events ([3]; 60 mg BID) was “No death events occurred” and the “incidence of adverse reaction: diarrhea” value ([3]; 60 mg BID) was 11.4%. For the same molecule, the “incidence of adverse reaction: dizziness” value ([3]; 60 mg BID) was 9.0%, the “incidence of adverse reaction: fatigue” value ([3]; 60 mg BID) was 8.5% and the “incidence of adverse reaction: headache” value ([3]; 60 mg BID) was 8.1%. The “incidence of adverse reaction: hypertriglyceridemia” value ([3]; 60 mg BID) was 5.7%, the “incidence of adverse reaction: increased stool frequency” value ([3]; 60 mg BID) was 10.4% and the “incidence of adverse reaction: nausea” value ([3]; 60 mg BID) was 23.7%. For the same molecule, the “incidence of adverse reaction: vomiting” value ([3]; 60 mg BID) was 10.0%, the “severity of adverse events leading” value ([3]; 60 mg BID) was “Grade 1 or Grade 2” and the “severity of the primary adverse reactions” value ([3]; 60 mg BID) was “Grade 1 or Grade 2”. For the same molecule, the “time of occurrence of gastrointestinal reactions and nervous system abnormalities” value ([3]; 60 mg BID) was “mostly occurred within the first two weeks of administration”, the “tuberculosis activation (reactivation)” value ([3]; 105 T-SPOT positive subjects without active tuberculosis, 7 with previously confirmed pulmonary tuberculosis, 76 with history of tuberculosis, 1 with history of tuberculous pleurisy, by the end of the study) was “no instances of tuberculosis activation (reactivation) were observed” and the “HADS Anxiety Score, Mean” value ([3]; Week 16, 60 mg BID) was 2.3. For the same molecule, the “HADS Depression Score, Mean” value ([3]; Week 16, 60 mg BID) was 3.0, the “HADS Anxiety Score, Mean” value ([3]; Week 56, 60 mg BID) was 3.1 and the “HADS Depression Score, Mean” value ([3]; Week 56, 60 mg BID) was 3.8. For the same molecule, the “chest X-ray or CT examinations” value ([3]; any of the subjects) was “No clinical abnormalities related to tuberculosis were found”, the “adverse events of depression or anxiety related to the investigational drug” value [3, 6] was “No adverse events of depression or anxiety related to the investigational drug were observed” and the “difference between the experimental group and the placebo group in mean HADS anxiety scores and mean HADS depression scores” value [3, 6] was “no statistically significant differences (P>0.05)”. The “occurrences” value [3, 6] was “no occurrences of depression or suicidal ideation”, the “drug-related serious adverse events” value ([3]; core treatment period, 60 mg BID) was “No drug-related serious adverse events occurred” and the “PASI-50 efficacy endpoint in subjects who had failed prior adalimumab treatment” value ([3]; two subjects, 60 mg BID) was “both achieved the PASI-50 efficacy endpoint”. For the same molecule, the “BSA rate of change (%)” value ([3]; week 16, 60 mg BID, N=211) was 65.0%, the “Both PASI-75 and sPGA 0/1 and reduction of ≥2 points from baseline (%)” value ([3]; week 16, 60 mg BID, N=211) was 30.3% and the “DLQI change from baseline, (mean)” value ([3]; week 16, 60 mg BID, N=211) was 5.38 points. The “PASI-50 (%)” value ([3]; week 16, 60 mg BID, N=211) was 82.7%, the “PASI-75 (%)” value ([3]; week 16, 60 mg BID, N=211) was 53.6% and the “PASI-90 (%)” value ([3]; week 16, 60 mg BID, N=211) was 32.5%. For the same molecule, the “sPGA score of 0/1 and reduction of ≥2 points from baseline (%)” value ([3]; week 16, 60 mg BID, N=211) was 31.3%, the “DLQI score change from baseline, Mean” value ([4]; 15mg BID Group (N=54)) was 4.9 and the “PASI-50 response rate (%)” value ([4]; 15mg BID Group (N=54)) was 42.59%. For the same molecule, the “PASI-75 & sPGA 0/1 score (%)” value ([4]; 15mg BID Group (N=54)) was 12.96%, the “PASI-90 response rate (%)” value ([4]; 15mg BID Group (N=54)) was 16.67% and the “sPGA 0/1 score (%)” value ([4]; 15mg BID Group (N=54)) was 14.81%. For the same molecule, the “DLQI score change from baseline, Mean” value ([4]; 30mg BID Group (N=54)) was 6.1, the “PASI-50 response rate (%)” value ([4]; 30mg BID Group (N=54)) was 51.85% and the “PASI-75 & sPGA 0/1 score (%)” value ([4]; 30mg BID Group (N=54)) was 14.81%. For the same molecule, the “PASI-90 response rate (%)” value ([4]; 30mg BID Group (N=54)) was 11.11%, the “sPGA 0/1 score (%)” value ([4]; 30mg BID Group (N=54)) was 14.81% and the “DLQI score change from baseline, Mean” value ([4]; 60mg BID Group (N=54)) was 7.1. For the same molecule, the “PASI-50 response rate (%)” value ([4]; 60mg BID Group (N=54)) was 62.96%, the “PASI-75 & sPGA 0/1 score (%)” value ([4]; 60mg BID Group (N=54)) was 24.07% and the “PASI-90 response rate (%)” value ([4]; 60mg BID Group (N=54)) was 20.37%. The “sPGA 0/1 score (%)” value ([4]; 60mg BID Group (N=54)) was 24.07%, the “Population pharmacokinetics and exposure-response analysis” value ([4]; 15, 30, 60 mg BID) was “the efficacy response rate increased with increasing doses” and the death events ([4]; 15, 30, 60 mg BID) was “No death events occurred”. For the same molecule, the “adverse events of depression or anxiety” value [4, 6] was “no adverse events of depression or anxiety were reported”, the “occurrences” value [4, 6] was “no occurrences of depression or suicidal ideation were observed” and the “drug-related serious adverse events” value ([4]; core treatment period) was “No drug-related serious adverse events occurred”. For the same molecule, the “Adverse events with an incidence of ≥10%” value ([4]; double-blind core treatment period (weeks 1 to 16)) was “diarrhea, nausea, headache, and fatigue”, the “drug-related adverse events with an incidence of ≥5% in any of the low, medium or high-dose groups” value ([4]; double-blind core treatment period (weeks 1 to 16), 15, 30, 60 mg BID) was “increased triglycerides, increased lipids, diarrhea, nausea, abdominal discomfort, hyperlipidemia, headache, and fatigue” and the “severity of adverse events leading” value ([4]; in vivo) was “Grade 1 or Grade 2”. For the same molecule, the “PASI-75 and PASI-90 efficacy endpoints in a subject who had failed adalimumab therapy” value ([4]; one subject) was “also achieved the PASI-75 and PASI-90 efficacy endpoints”, the “PASI-50 efficacy endpoint in subjects who had failed prior biologic therapy” value ([4]; one subject failed adalimumab, one failed secukinumab, one failed TNF-α monoclonal antibody therapy) was “all achieved the PASI-50 efficacy endpoint” and the “PASI-75 response rate (%)” value ([4]; 15mg BID Group (N=54)) was 18.52%. For the same molecule, the “PASI-75 response rate (%)” value ([4]; 30mg BID Group (N=54)) was 25.93% and the “PASI-75 response rate (%)” value ([4]; 60mg BID Group (N=54)) was 46.30%.
